Laboratory results taken from patent publication US8772297B2, “TGF-β signal transduction inhibitor” (Kyoto University, priority 2010, dated 2014).

Experiments:
[1] = tested on: liver Kupffer cells; assay: Influence on activation of liver Kupffer cells in primary culture system; format: cell-based; conditions: rat primary culture, 7 days
Experimental: Wistar rat (bred under SPF, male, 15-week-old) was subjected to laparotomy under pentobarbital anesthesia, a catheter was inserted into the portal vein, and perfusion was performed successively with a washing solution for hemorrhage, a 0.06% pronase solution (manufactured by Carbiochem), and a 0.03% collagenase (manufactured by Wako Pure Chemical Industries, Ltd.) solution. Then, the liver was isolated and incubated in a liver Kupffer cell separation buffer containing 0.057% pronase and 0.057% collagenase, and supplemented with 2 mg/mL DNaseI (1 mL, manufactured by Roche Diagnostics) in a warm bath at 36° C. for 30 min. During this period, the pH of the lysate was maintained at 7.2-7.4 with 1N NaOH. Then, the hepatic tissue digestive product was filtered through a mesh, a liver Kupffer cell separation buffer was added to the obtained filtrate to the total amount of 150 mL. The mixture was dispensed to three 50-mL polypropylene tubes, and centrifuged at 4° C., 2000 rpm for 8 min. […]
On the other hand, respective cells were washed with phosphate buffer (PBS: phosphate buffered saline) 7 days later, and fixed with 4% para-formaldehyde at room temperature for 10 min. […] Then, the cells were washed with PBST, and the α smooth muscle actin (αSMA) expression level was observed under a fluorescence microscope.

[2] = tested on: mouse bile duct ligation induced hepatic fibrosis model; assay: Anti-fibrillization action in mouse bile duct ligation induced hepatic fibrosis model (BDL model); format: in vivo; conditions: ICR mice, tail vein once a day for 14 days, qPCR vs GAPDH, FIG. 4
Experimental: Hepatopathy caused by accumulation of bile in the liver and therewith associated liver fibrillization are induced by ligating the bile duct of mouse. The effect of the test compound on the hepatopathy and liver fibrillization associated therewith was evaluated. […]
mRNA was extracted from the hepatic tissue preserved in RNALater by using an RNA purification kit RNeasy Micro Kit (manufactured by QIAGEN), and the RNA concentration was determined using a spectrophotometer (Nano Drop). […] Using SYBR® Premix EX Taq™ (manufactured by TAKARA), a reaction mixture was prepared according to the package insert, qPCR reaction was performed using respective primers for αSMA and the internal standard GAPDH (manufactured by Invitrogen), and the mRNA expression level was quantified.

[3] = tested on: ARPE-19 cells; assay: Evaluation of TGF-β-induced epithelial-mesenchymal transition (EMT) inhibitory activity; format: cell-based; conditions: human TGF-β2 10 ng/mL and human TNF 10 ng/mL, 2 days, Giemsa stain, FIG. 1
Experimental: Human retinal pigment epithelial cells (ARPE-19 cells) were seeded in a 96 well plate at a concentration of 1.2×10^4 cells/well, and cultured overnight (5% CO2, 37° C.) in DMEM/F12 medium containing 10% fetal bovine serum, penicillin (100 U/mL), streptomycin (100 μg/mL) and Hepes (10 mM). The next day, the medium was changed to a serum-free medium, and a test compound was added. After 1 hr, the cells were stimulated with human TGF-β2 (10 ng/mL) and human TNF (10 ng/mL). After culture for 2 days, the cells were stained with Giemsa, and the influence of the compound on the formation of cell aggregates was evaluated.

CN(C)c1ccc(NS(=O)(=O)c2cccc(S(=O)(=O)NCC3CCN(C(=O)OC(C)(C)C)CC3)c2)cc1-c1ccco1 [Y244, 4-{[3-(4-dimethylamino-3-furan-2-yl-phenylsulfamoyl)benzenesulfonylamino]methyl}piperidine-1-carboxylic acid tert-butyl ester]
expression of α smooth muscle actin associated with the activation of liver Kupffer cells ([1]; Cy3-labeled anti-αSMA antibody, fluorescence microscope, FIG. 3): remarkably suppressed
cell morphology change caused by the activation of liver Kupffer cells ([1]; bright field, FIG. 2): suppressed
mRNA expression level of α smooth muscle actin in the liver tissue [2]: significantly suppressed
EMT induced by TGF-β (formation of cell aggregates) [3]: remarkably suppressed
